Measurements from ChEMBL document CHEMBL5143555, “Potentiating the intracellular killing of Staphylococcus aureus by dihydroquinazoline analogues as NorA efflux pump inhibitor” (Bioorg Med Chem, 2022).
≈ marks a conversion by molar mass, not a printed value. Calls of active or inactive are those of the source. The rule behind the calls is not given here.

Tests used:
Staphylococcus aureus [1] = assay: Antibacterial activity against Staphylococcus aureus 1199B measured after 24 hrs by Muller Hinton broth based MTT assay; type: functional
Staphylococcus aureus [2] = assay: Antibacterial activity against Staphylococcus aureus 1199 measured after 24 hrs by Muller Hinton broth based MTT assay; type: functional
Staphylococcus aureus [3] = assay: Antibacterial activity against Staphylococcus aureus K1758 measured after 24 hrs by Muller Hinton broth based MTT assay; type: functional
[4] = target: T1, Quinolone resistance protein NorA (Staphylococcus aureus) (UniProt P0A0J7); assay: Inhibition of NorA in Staphylococcus aureus 1199B assessed as accumulation of norfloxacin at 3.9 ug/ml by measuring fluorescence intensity measured at 5 mins interval for 40 mins by fluorescence spectrophotometry; settings: dose 3.9 µg/ml
T1 sequence (whole entry): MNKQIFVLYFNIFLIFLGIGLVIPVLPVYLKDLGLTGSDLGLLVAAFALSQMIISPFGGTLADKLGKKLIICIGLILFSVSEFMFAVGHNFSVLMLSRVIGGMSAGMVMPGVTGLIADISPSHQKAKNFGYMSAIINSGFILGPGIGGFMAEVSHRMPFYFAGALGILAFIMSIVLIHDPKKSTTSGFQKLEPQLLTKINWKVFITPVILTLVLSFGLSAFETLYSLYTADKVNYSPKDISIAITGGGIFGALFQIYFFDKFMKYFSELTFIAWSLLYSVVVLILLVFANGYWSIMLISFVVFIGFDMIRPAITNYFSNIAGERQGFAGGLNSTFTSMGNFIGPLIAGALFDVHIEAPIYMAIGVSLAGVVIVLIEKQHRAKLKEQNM

[5] = target: T1, Quinolone resistance protein NorA (Staphylococcus aureus); assay: Inhibition of NorA in Staphylococcus aureus 1199B assessed as potentiation of norfloxacin-induced antibacterial activity by measuring Norfloxacin MIC at sub MIC
[6] = target: T1, Quinolone resistance protein NorA (Staphylococcus aureus); assay: Inhibition of NorA in Staphylococcus aureus 1199B assessed as potentiation of norfloxacin-induced antibacterial activity by measuring Norfloxacin MIC at sub MIC relative to norfloxacin MIC alone
[7] = target: T1, Quinolone resistance protein NorA (Staphylococcus aureus); assay: Inhibition of NorA in Staphylococcus aureus 1199B assessed as potentiation of norfloxacin-induced antibacterial activity by measuring fractional inhibitory concentration
[8] = target: T1, Quinolone resistance protein NorA (Staphylococcus aureus); assay: Inhibition of NorA in Staphylococcus aureus 1199B assessed as potentiation of ethidium bromide-induced antibacterial activity by measuring ethidium bromide MIC at sub MIC
[9] = target: T1, Quinolone resistance protein NorA (Staphylococcus aureus); assay: Inhibition of NorA in Staphylococcus aureus 1199B assessed as potentiation of ethidium bromide-induced antibacterial activity by measuring ethidium bromide MIC at sub MIC relative to ethidium bromide MIC alone
[10] = target: T1, Quinolone resistance protein NorA (Staphylococcus aureus); assay: Inhibition of NorA in Staphylococcus aureus 1199B assessed as potentiation of ethidium bromide-induced antibacterial activity by measuring fractional inhibitory concentration
[11] = target: T1, Quinolone resistance protein NorA (Staphylococcus aureus); assay: Inhibition of NorA in Staphylococcus aureus 1199B assessed as potentiation of 3.1 ug/mL norfloxacin-induced bactericidal activity by measuring log reduction in bacterial count at 7.8 ug/mL measured after 12 hrs by time-kill kinetics assay; settings: dose 7.8 µg/ml
[12] = target: T1, Quinolone resistance protein NorA (Staphylococcus aureus); assay: Inhibition of NorA in Staphylococcus aureus 1199B assessed as potentiation of ethidium bromide-induced bactericidal activity at 7.8 ug/ml measured within 8 hrs by time-kill kinetics assay; settings: dose 7.8 µg/ml
[13] = Cytotoxicity against kidney epithelial cells (unknown origin) assessed as cell viability at 50 ug/mL measured after 24 hrs by alamar blue assay relative to control; type: toxicity, cell-based, Fetal kidney cell; settings: at 50 µg/mL, read-out: Activity
[14] = target: T1, Quinolone resistance protein NorA (Staphylococcus aureus); assay: Inhibition of NorA in Staphylococcus aureus 1199B assessed as accumulation of ethidium bromide at 3.9 ug/ml by measuring fluorescence intensity measured at 5 mins interval for 40 mins by fluorescence spectrophotometry; settings: dose 3.9 µg/ml

Structure (SMILES)	MIC (Staphylococcus aureus [1]) [µg/mL]	MIC (Staphylococcus aureus [2]) [µg/mL]	MIC (Staphylococcus aureus [3]) [µg/mL]	also measured
CC1(C)S[C@@H]2[C@H](NC(=O)[C@H](N)c3ccccc3)C(=O)N2[C@H]1C(=O)O [AMPICILLIN]	0.42 (≈ 1.2 µM)	0.05 (≈ 0.143 µM)	0.1 (≈ 0.286 µM)	
CN1c2ccc(Cl)cc2C(c2ccccc2)=NC1c1ccco1 (configuration not stated)	> 1000	125 (≈ 387 µM)	250 (≈ 774 µM)	
COc1ccc(C2N=C(c3ccccc3)c3ccccc3N2)cc1 (configuration not stated)	500 (≈ 1590 µM)	125 (≈ 398 µM)	250 (≈ 795 µM)	
Brc1ccc(C2N=C(c3ccccc3)c3ccccc3N2)cc1 (configuration not stated)	> 1000	125 (≈ 344 µM)	250 (≈ 688 µM)	
c1ccc(C2=NC(c3ccco3)Nc3ccccc32)cc1 (configuration not stated)	500 (≈ 1820 µM)	125 (≈ 456 µM)	250 (≈ 911 µM)	
CC(=O)NC[C@H]1CN(c2ccc(N3CCOCC3)c(F)c2)C(=O)O1 [LINEZOLID]	1.75 (≈ 5.19 µM)	0.85 (≈ 2.52 µM)	0.1 (≈ 0.296 µM)	
CN[C@@H]1[C@H](O[C@H]2[C@H](O[C@H]3[C@H](O)[C@@H](O)[C@H](N=C(N)N)[C@@H](O)[C@@H]3N=C(N)N)O[C@@H](C)[C@]2(O)C=O)O[C@@H](CO)[C@H](O)[C@H]1O [STREPTOMYCIN]	3.5 (≈ 6.02 µM)	1.7 (≈ 2.92 µM)	0.4 (≈ 0.688 µM)	
CO[C@H]1/C=C/O[C@@]2(C)Oc3c(C)c(O)c4c(O)c(c(/C=N/N5CCN(C)CC5)c(O)c4c3C2=O)NC(=O)/C(C)=C\C=C\[C@H](C)[C@H](O)[C@@H](C)[C@@H](O)[C@@H](C)[C@H](OC(C)=O)[C@@H]1C [RIFAMPIN]	0.21 (≈ 0.255 µM)	0.1 (≈ 0.122 µM)	0.1 (≈ 0.122 µM)	
CN1c2ccc(Cl)cc2C(c2ccccc2)=NC1c1ccccc1 (configuration not stated)	500 (≈ 1500 µM)	125 (≈ 376 µM)	250 (≈ 751 µM)	Flu intensity [4]: 1560; MIC [5]: 6.2 µg/mL; fold change (FC) [6]: 8; fractional inhibitory concentration index (FICI) [7]: 0.141; MIC [8]: 12.5 µg/mL; fold change (FC) [9]: 4; fractional inhibitory concentration index (FICI) [10]: 0.266; Activity [11]: > 3 log10CFU/ml; inhibition [12]: Active; viability at 24 h, 50 ug/mL [13]: 5%; Flu intensity [14]: 143
O=[N+]([O-])c1ccc(C2N=C(c3ccccc3)c3ccccc3N2)cc1 (configuration not stated)	> 1000	125 (≈ 380 µM)	250 (≈ 759 µM)	
CC1(C)S[C@@H]2[C@H](NC(=O)[C@H](N)c3ccc(O)cc3)C(=O)N2[C@H]1C(=O)O [AMOXICILLIN]	0.42 (≈ 1.15 µM)	0.05 (≈ 0.137 µM)	0.1 (≈ 0.274 µM)	
C=CCOc1ccc(C2N=C(c3ccccc3)c3ccccc3N2)cc1 (configuration not stated)	500 (≈ 1470 µM)	125 (≈ 367 µM)	250 (≈ 734 µM)	
